Values after ≈ are worked out from the molar mass of the structure shown.
What was measured:
[1] = tested on: Mycobacterium tuberculosis; experiment: Antimycobacterial activity against Mycobacterium tuberculosis CNCTC My 331/88 after 14 days by microdilution method; format: functional; conditions: CNCTC My 331/88, 336 h
Mycobacterium kansasii [2] = experiment: Antimycobacterial activity against Mycobacterium kansasii CNCTC My 235/80 after 7 days by microdilution method; format: functional; conditions: CNCTC My 235/80, 168 h
Pichia kudriavzevii = experiment: Antifungal activity against Candida krusei E28 after 24 to 48 hrs by broth microdilution method; format: functional
Candida tropicalis = experiment: Antifungal activity against Candida tropicalis 156 after 24 to 48 hrs by broth microdilution method; format: functional
Pseudomonas aeruginosa = experiment: Antibacterial activity against Pseudomonas aeruginosa ATCC 9027 after 24 to 48 hrs by broth microdilution method; format: functional
Nakaseomyces glabratus = experiment: Antifungal activity against Candida glabrata 20/I after 24 to 48 hrs by broth microdilution method; format: functional
Mycobacterium kansasii [3] = experiment: Antimycobacterial activity against Mycobacterium kansasii CNCTC My 6509/96 after 21 days by microdilution method; format: functional; conditions: CNCTC My 6509/96, 504 h
Mycobacterium kansasii [4] = experiment: Antimycobacterial activity against Mycobacterium kansasii CNCTC My 235/80 after 14 days by microdilution method; format: functional; conditions: CNCTC My 235/80, 336 h
Staphylococcus aureus [5] = experiment: Antibacterial activity against Staphylococcus aureus ATCC 6538 after 24 to 48 hrs by broth microdilution method; format: functional
Trichosporon asahii = experiment: Antifungal activity against Trichosporon asahii 1188 after 24 to 48 hrs by broth microdilution method; format: functional
Staphylococcus aureus [6] = experiment: Antibacterial activity against methicillin-resistant Staphylococcus aureus H 5996/08 after 24 to 48 hrs by broth microdilution method; format: functional
[7] = tested on: Mycobacterium tuberculosis; experiment: Antimycobacterial activity against Mycobacterium tuberculosis CNCTC My 331/88 after 21 days by microdilution method; format: functional; conditions: CNCTC My 331/88, 504 h
Enterococcus faecalis = experiment: Antibacterial activity against Enterococcus faecalis J 14365/08 after 24 to 48 hrs by broth microdilution method; format: functional
Candida albicans = experiment: Antifungal activity against Candida albicans ATCC 44859 after 24 to 48 hrs by broth microdilution method; format: functional
Mycobacterium kansasii [8] = experiment: Antimycobacterial activity against Mycobacterium kansasii CNCTC My 235/80 after 21 days by microdilution method; format: functional; conditions: CNCTC My 235/80, 504 h
Mycobacterium kansasii [9] = experiment: Antimycobacterial activity against Mycobacterium kansasii CNCTC My 6509/96 after 7 days by microdilution method; format: functional; conditions: CNCTC My 6509/96, 168 h
Lichtheimia corymbifera = experiment: Antifungal activity against Absidia corymbifera 272 after 24 to 48 hrs by broth microdilution method; format: functional
[10] = tested on: Staphylococcus epidermidis; experiment: Antibacterial activity against Staphylococcus epidermidis H 6966/08 after 24 to 48 hrs by broth microdilution method; format: functional
Mycobacterium avium [11] = experiment: Antimycobacterial activity against Mycobacterium avium CNCTC My 330/88 after 14 days by microdilution method; format: functional; conditions: CNCTC My 330/88, 336 h
Escherichia coli = experiment: Antibacterial activity against Escherichia coli ATCC 8739 after 24 to 48 hrs by broth microdilution method; format: functional
Klebsiella pneumoniae [12] = experiment: Antibacterial activity against ESBL producing Klebsiella pneumoniae J 14368/08 after 24 to 48 hrs by broth microdilution method; format: functional
Aspergillus fumigatus = experiment: Antifungal activity against Aspergillus fumigatus 231 after 24 to 48 hrs by broth microdilution method; format: functional
Klebsiella pneumoniae [13] = experiment: Antibacterial activity against Klebsiella pneumoniae D 11750/08 after 24 to 48 hrs by broth microdilution method; format: functional
Mycobacterium kansasii [14] = experiment: Antimycobacterial activity against Mycobacterium kansasii CNCTC My 6509/96 after 14 days by microdilution method; format: functional; conditions: CNCTC My 6509/96, 336 h
Mycobacterium avium [15] = experiment: Antimycobacterial activity against Mycobacterium avium CNCTC My 330/88 after 21 days by microdilution method; format: functional; conditions: CNCTC My 330/88, 504 h
[16] = tested on: Trichophyton mentagrophytes; experiment: Antifungal activity against Trichophyton mentagrophytes 445 after 72 to 120 hrs by broth microdilution method; format: functional
[17] = Cytotoxicity against human HuH7 cells assessed as cell viability at 20 uM after 24 hrs by MTS assay; format: cell-based, Huh-7; conditions: read-out: Activity
[18] = Cytotoxicity against human HeLa cells assessed as cell viability at 20 uM after 24 hrs by MTS assay; format: cell-based; conditions: read-out: Activity
[19] = Cytotoxicity against human HuH7 cells assessed as cell viability after 24 hrs by MTS assay; format: cell-based; conditions: Huh-7, 24 h
[20] = Cytotoxicity against MDCK2-MDR1 cells assessed as cell viability after 24 hrs by MTS assay; format: ADME, cell-based; conditions: Canis lupus familiaris, MDCK-II
[21] = Cytotoxicity against MDCK2-MDR1 cells assessed as cell viability at 20 uM after 48 hrs by MTS assay; format: ADME, cell-based, Canis lupus familiaris, MDCK-II; conditions: dog, read-out: Activity
HeLa = experiment: Cytotoxicity against human HeLa cells assessed as cell viability after 24 hrs by MTS assay; format: cell-based
Salmonella typhimurium [22] = experiment: Mutagenic activity in Salmonella typhimurium TA98 assessed as reverse mutation at 30 uM by Ames test; format: toxicity, organism-based; conditions: salmonella enterica subsp. enterica serovar typhimurium
Salmonella typhimurium [23] = experiment: Mutagenic activity in Salmonella typhimurium TA100 assessed as reverse mutation at 30 uM by Ames test; format: toxicity, organism-based; conditions: salmonella enterica subsp. enterica serovar typhimurium
[24] = Cytotoxicity against human HeLa cells assessed as cell viability at 20 uM after 48 hrs by MTS assay; format: cell-based; conditions: read-out: Activity
[25] = Cytotoxicity against MDCK2-MDR1 cells assessed as cell viability at 20 uM after 24 hrs by MTS assay; format: ADME, cell-based, Canis lupus familiaris, MDCK-II; conditions: dog, read-out: Activity
[26] = Cytotoxicity against MDCK2-MDR1 cells assessed as cell viability after 48 hrs by MTS assay; format: ADME, cell-based; conditions: Canis lupus familiaris, MDCK-II
[27] = Cytotoxicity against human HuH7 cells assessed as cell viability at 20 uM after 48 hrs by MTS assay; format: cell-based, Huh-7; conditions: read-out: Activity

Compound | MIC99 [1] [µM] | MIC99 (Mycobacterium kansasii [2]) [µM] | MIC80 (Pichia kudriavzevii) [µM] | MIC80 (Candida tropicalis) [µM] | MIC95 (Pseudomonas aeruginosa) [µM] | MIC80 (Nakaseomyces glabratus) [µM] | MIC99 (Mycobacterium kansasii [3]) [µM] | MIC99 (Mycobacterium kansasii [4]) [µM] | MIC95 (Staphylococcus aureus [5]) [µM] | MIC80 (Trichosporon asahii) [µM] | MIC95 (Staphylococcus aureus [6]) [µM] | MIC99 [7] [µM] | MIC95 (Enterococcus faecalis) [µM] | MIC80 (Candida albicans) [µM] | MIC99 (Mycobacterium kansasii [8]) [µM] | MIC99 (Mycobacterium kansasii [9]) [µM] | MIC50 (Lichtheimia corymbifera) [µM] | MIC99 (Mycobacterium avium [11]) [µM] | MIC99 (Mycobacterium kansasii [14]) [µM] | MIC99 (Mycobacterium avium [15]) [µM] | further results
O=[N+]([O-])c1ccc(CSc2nnc(-c3ccc(Cl)cc3)o2)c([N+](=O)[O-])c1 | 2 (≈ 0.786 µg/mL) | 2 (≈ 0.786 µg/mL) | > 125 | > 125 | > 125 | > 125 | 8 (≈ 3.14 µg/mL) | 4 (≈ 1.57 µg/mL) | > 125 | > 125 | > 125 | 2 (≈ 0.786 µg/mL) | > 125 | > 125 | 4 (≈ 1.57 µg/mL) | 4 (≈ 1.57 µg/mL) | > 125 | 8 (≈ 3.14 µg/mL) | 8 (≈ 3.14 µg/mL) | 16 (≈ 6.28 µg/mL) | MIC95 [10]: > 125 µM; MIC95 (Escherichia coli): > 125 µM; MIC95 (Klebsiella pneumoniae [12]): > 125 µM; MIC50 (Aspergillus fumigatus): > 125 µM; MIC95 (Klebsiella pneumoniae [13]): > 125 µM; MIC50 [16]: > 125 µM
CCCCCCCCCCCc1nnc(SCc2cc([N+](=O)[O-])cc([N+](=O)[O-])c2)o1 | 0.25 (≈ 0.109 µg/mL) | 0.125 (≈ 0.0546 µg/mL) | > 125 | > 125 | > 125 | > 125 | 0.25 (≈ 0.109 µg/mL) | 0.25 (≈ 0.109 µg/mL) | > 125 | > 125 | > 125 | 0.25 (≈ 0.109 µg/mL) | > 125 | > 125 | 0.25 (≈ 0.109 µg/mL) | 0.25 (≈ 0.109 µg/mL) | > 125 | 4 (≈ 1.75 µg/mL) | 0.25 (≈ 0.109 µg/mL) | 8 (≈ 3.49 µg/mL) | MIC95 [10]: > 125 µM; MIC95 (Escherichia coli): > 125 µM; MIC95 (Klebsiella pneumoniae [12]): > 125 µM; MIC50 (Aspergillus fumigatus): > 125 µM; MIC95 (Klebsiella pneumoniae [13]): > 125 µM; MIC50 [16]: > 125 µM
O=[N+]([O-])c1cc(CSc2nnc(-c3cccc(Cl)c3)o2)cc([N+](=O)[O-])c1 | ≤ 0.03 | 0.125 (≈ 0.0491 µg/mL) |  |  |  |  | 1 (≈ 0.393 µg/mL) | 0.25 (≈ 0.0982 µg/mL) |  |  |  | 0.06 (≈ 0.0236 µg/mL) |  |  | 0.5 (≈ 0.196 µg/mL) | 0.125 (≈ 0.0491 µg/mL) |  | 16 (≈ 6.28 µg/mL) | 0.5 (≈ 0.196 µg/mL) | 16 (≈ 6.28 µg/mL) | viability at 24 h, 20 µM [17]: 97.9%; viability at 24 h, 20 µM [18]: 81.9%; IC50 [19]: > 20 µM; IC50 [20]: > 20 µM; viability at 48 h, 20 µM [21]: 57.9%; IC50 (HeLa): > 20 µM; Activity (Salmonella typhimurium [22]): Non-toxic; Activity (Salmonella typhimurium [23]): Non-toxic; viability at 48 h, 20 µM [24]: 34.6%; viability at 24 h, 20 µM [25]: 93.3%; IC50 [26]: > 20 µM; viability at 48 h, 20 µM [27]: 45.9%

— ChEMBL document CHEMBL3797190, “Development of 3,5-Dinitrobenzylsulfanyl-1,3,4-oxadiazoles and Thiadiazoles as Selective Antitubercular Agents Active Against Replicating and Nonreplicating Mycobacterium tuberculosis” (J Med Chem, 2016)
